≈ marks a conversion by molar mass, not a printed value. Where “and” joins values, the source holds several entries; their conditions need not be identical. Identical values can stand only once. Blank lines part the entries; values can stand above or below the compound they belong to.
Tests used:
Assay in all cases: ≥ marks a high value that may be exact or a test limit, other limits are often not marked, values filed in µg/mL are converted to µM
Pseudomonas aeruginosa 2 = test system: Pseudomonas aeruginosa 2
Staphylococcus aureus = test system: Staphylococcus aureus
Escherichia coli = test system: Escherichia coli
[1] = test system: Escherichia coli ATCC 25922
[2] = test system: Pseudomonas aeruginosa ATCC 27853
[3] = test system: Staphylococcus aureus ATCC 25923
Pseudomonas aeruginosa 1 = test system: Pseudomonas aeruginosa 1
Listeria monocytogenes = test system: Listeria monocytogenes
Enterobacter cloacae = test system: Enterobacter cloacae
Aerococcus viridans = test system: Aerococcus viridans
Streptococcus pneumoniae = test system: Streptococcus pneumoniae
Salmonella typhimurium = test system: Salmonella typhimurium
Saccharomyces cerevisiae = test system: Saccharomyces cerevisiae
Vibrio cholerae = test system: Vibrio cholerae
Pseudomonas aeruginosa = test system: Pseudomonas aeruginosa
Escherichia coli B = test system: Escherichia coli B
[4] = test system: Salmonella enterica subsp. enterica serovar Enteritidis
Bacillus megaterium = test system: Bacillus megaterium
Klebsiella pneumoniae = test system: Klebsiella pneumoniae
[5] = test system: Staphylococcus haemolyticus
Candida albicans = test system: Candida albicans
Clostridium perfringens = test system: Clostridium perfringens
[6] = test system: Enterococcus faecalis CGMCC 1.595
[7] = test system: Klebsiella pneumoniae subsp. pneumoniae CGMCC 1.176
Escherichia coli AS1.349 = test system: Escherichia coli AS1.349
[8] = test system: Staphylococcus aureus AS1.72
[9] = test system: Enterobacter cloacae CGMCC 1.58
[10] = test system: Enterococcus faecium CGMCC 1.2334
[11] = test system: Klebsiella aerogenes CGMCC 1.876
[12] = test system: Pseudomonas aeruginosa CGMCC 1.860
[13] = test system: Lactococcus lactis AS1.1690
Bacillus cereus AS1.126 = test system: Bacillus cereus AS1.126
Acinetobacter baumannii = test system: Acinetobacter baumannii
[14] = test system: Salmonella enterica subsp. enterica serovar Typhimurium ATCC 14028
Escherichia coli K99 = test system: Escherichia coli K99
[15] = test system: Salmonella enterica subsp. enterica serovar Typhimurium C77-31
[16] = test system: Pseudomonas aeruginosa PAO1
Escherichia coli UB1005 = test system: Escherichia coli UB1005
[17] = test system: Salmonella enterica subsp. enterica serovar Pullorum C79-13
[18] = test system: Pseudomonas aeruginosa CICC 21625
[19] = test system: Pseudomonas aeruginosa CICC 21630
Escherichia coli K88 = test system: Escherichia coli K88

MIC (Pseudomonas aeruginosa 2): 4.6 µM (≈ 10 µg/mL)
MIC (Staphylococcus aureus): 0.115 µM and 0.163 µM
MIC (Escherichia coli): 0.405 µM (≈ 0.88 µg/mL)
MIC [1]: 0.575 µM (≈ 1.25 µg/mL)
MIC [2]: 2.3 µM (≈ 5 µg/mL)
MIC [3]: 0.0575 µM (≈ 0.125 µg/mL)
MIC (Pseudomonas aeruginosa 1): 1.15 µM (≈ 2.5 µg/mL)
SMILES: CC[C@H](C)[C@H](NC(=O)CN)C(=O)NCC(=O)N[C@@H](C)C(=O)N[C@H](C(=O)N[C@@H](CC(C)C)C(=O)N[C@@H](CCCCN)C(=O)N[C@@H](Cc1c[nH]c2ccccc12)C(=O)N[C@@H](CC(C)C)C(=O)N1CCC[C@H]1C(=O)N[C@@H](C)C(=O)N[C@@H](CC(C)C)C(=O)N[C@H](C(=O)N[C@@H](CCCCN)C(=O)N[C@@H](CCCN=C(N)N)C(=O)N[C@@H](CCCCN)C(=O)N[C@@H](CCCN=C(N)N)C(=O)N[C@@H](CCC(N)=O)C(=O)N[C@@H](CCC(N)=O)C(=O)O)[C@@H](C)CC)C(C)C [GIGAVLKWLPALIKRKRQQ]

MIC (Listeria monocytogenes): 25 µM (≈ 60.4 µg/mL)
MIC (Enterobacter cloacae): 12.5 µM (≈ 30.2 µg/mL)
MIC (Aerococcus viridans): 3.1 µM (≈ 7.5 µg/mL)
MIC (Streptococcus pneumoniae): 6.25 µM (≈ 15.1 µg/mL)
MIC (Salmonella typhimurium): 3.1 µM (≈ 7.5 µg/mL)
MIC (Saccharomyces cerevisiae): ≥ 50 µM
MIC (Pseudomonas aeruginosa): 3.1 µM (≈ 7.5 µg/mL)
MIC (Escherichia coli B): 6.25 µM (≈ 15.1 µg/mL)
MIC (Staphylococcus aureus): 6.25 µM (≈ 15.1 µg/mL)
MIC [4]: 3.1 µM (≈ 7.5 µg/mL)
MIC (Bacillus megaterium): 25 µM (≈ 60.4 µg/mL)
MIC (Klebsiella pneumoniae): 6.25 µM (≈ 15.1 µg/mL)
MIC (Candida albicans): 50 µM (≈ 121 µg/mL)
MIC (Clostridium perfringens): ≥ 50 µM
SMILES: CC[C@H](C)[C@H](NC(=O)[C@H](CC(C)C)NC(=O)[C@H](CO)NC(=O)[C@@H](NC(=O)[C@@H](NC(=O)[C@H](CC(C)C)NC(=O)CN)C(C)C)[C@@H](C)O)C(=O)N[C@@H](CCCCN)C(=O)NCC(=O)N[C@@H](C)C(=O)NCC(=O)N[C@@H](CCCCN)C(=O)N[C@@H](CC(C)C)C(=O)N[C@@H](CC(C)C)C(=O)NCC(=O)NCC(=O)N[C@@H](CC(C)C)C(=O)N[C@@H](Cc1ccccc1)C(=O)NCC(=O)N[C@@H](CO)C(=O)N[C@H](C(=O)N[C@H](C(=O)NCC(=O)NCC(=O)N[C@@H](CCC(N)=O)C(=O)N[C@@H](CO)C(=O)O)[C@@H](C)O)C(C)C [GLVTSLIKGAGKLLGGLFGSVTGGQS]
MIC (Vibrio cholerae): 25 µM (≈ 60.4 µg/mL)
MIC [5]: ≥ 50 µM

MIC [6]: 12.5 µM (≈ 16 µg/mL)
MIC [7]: ≥ 100 µM
MIC (Escherichia coli AS1.349): 12.5 µM (≈ 16 µg/mL)
MIC [8]: 12.5 µM (≈ 16 µg/mL)
MIC [9]: ≥ 100 µM
MIC [10]: 12.5 µM (≈ 16 µg/mL)
MIC [11]: ≥ 100 µM
MIC [12]: 12.5 µM (≈ 16 µg/mL)
MIC [13]: 25 µM (≈ 32 µg/mL)
MIC (Bacillus cereus AS1.126): 3.13 µM (≈ 4.01 µg/mL)
SMILES: NC(N)=NCCC[C@H](NC(=O)[C@H](Cc1cnc[nH]1)NC(=O)[C@H](Cc1c[nH]c2ccccc12)NC(=O)[C@H](Cc1ccccc1)NC(=O)[C@H](CCCN=C(N)N)NC(=O)[C@H](CCCN=C(N)N)NC(=O)[C@H](Cc1c[nH]c2ccccc12)NC(=O)[C@@H](N)Cc1cnc[nH]1)C(=O)O [HWRRFWHR]

MIC (Acinetobacter baumannii): 8 µM (≈ 15.5 µg/mL)
MIC [14]: 16 µM (≈ 31 µg/mL)
MIC (Escherichia coli K99): 8 µM (≈ 15.5 µg/mL)
MIC (Pseudomonas aeruginosa): > 64 µM
MIC [15]: 16 µM (≈ 31 µg/mL)
MIC [16]: > 64 µM
MIC (Escherichia coli): 16 µM (≈ 31 µg/mL)
MIC (Escherichia coli UB1005): 16 µM (≈ 31 µg/mL)
MIC [17]: 16 µM (≈ 31 µg/mL)
MIC [1]: 16 µM (≈ 31 µg/mL)
MIC [2]: > 64 µM
MIC [18]: ≥ 64 µM
MIC (Klebsiella pneumoniae): 32 µM (≈ 61.9 µg/mL)
MIC [19]: ≥ 64 µM
MIC (Escherichia coli K88): 4 µM (≈ 7.74 µg/mL)
SMILES: CC[C@H](C)[C@H](N)C(=O)N[C@@H](CCCN=C(N)N)C(=O)N1CCC[C@H]1C(=O)N[C@H](C(=O)N[C@H](C(=O)N[C@@H](CCCN=C(N)N)C(=O)N1CCC[C@H]1C(=O)N[C@H](C(=O)N[C@H](C(=O)N[C@@H](CCCN=C(N)N)C(=O)N1CCC[C@H]1C(=O)N[C@H](C(=O)N[C@H](C(=O)N[C@@H](CCCN=C(N)N)C(=O)N1CCC[C@H]1C(=O)N[C@H](C(N)=O)[C@@H](C)CC)[C@@H](C)CC)[C@@H](C)CC)[C@@H](C)CC)[C@@H](C)CC)[C@@H](C)CC)[C@@H](C)CC [IRPIIRPIIRPIIRPI]

Source: DBAASP
